Assay results reported in PubChem BioAssay (NCI).
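1) Cells in 96-well plates. 2) Compound, 48 h, 5 concentrations. 3) Linear interpolation between surrounding doses. 4) Unreached endpoint = highest concentration. The concentration for 50% growth inhibition is given as GI50. TGI denotes the concentration required for complete inhibition of growth.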

Tests used:
Assay in all cases: NCI-60 cell line screen, 48 h
[1] = system: OVCAR-8 ovarian
[2] = system: K-562 leukemia
[3] = system: HCT-15 colon
[4] = system: M14 melanoma
[5] = system: SF-295 CNS
[6] = system: UACC-62 melanoma
[7] = system: RXF 393 renal
[8] = system: SK-MEL-2 melanoma

| Structure (SMILES) | TGI [1] [µM] | TGI [2] [µM] | TGI [3] [µM] | TGI [4] [µM] | TGI [5] [µM] | TGI [6] [µM] | TGI [7] [µM] | TGI [8] [µM] | GI50 [1] [µM] | GI50 [2] [µM] | GI50 [3] [µM] | GI50 [4] [µM] | GI50 [5] [µM] | GI50 [6] [µM] | GI50 [7] [µM] | GI50 [8] [µM] |
| --- | --- | --- | --- | --- | --- | --- | --- | --- | --- | --- | --- | --- | --- | --- | --- | --- |
| NC(Cc1ccnnc1)C(=O)O (centres undefined) | > 100 | > 100 | > 100 | > 100 | > 100 | > 100 | > 100 | > 100 |  |  |  |  |  |  |  |  |
| O=S(=O)(O)/C(=C\c1ccccc1)c1ccccc1 (tested in a mixture with another compound) | > 100 | > 100 | > 100 | > 100 | > 100 | > 100 | > 100 | > 100 |  |  |  |  |  |  |  |  |
| COc1ccc(/C=C(/C)[N+](=O)[O-])cc1 | 5.75 | 16 | 7.36 | 7.92 | 19 | 3.29 | 3.16 | 10.8 |  |  |  |  |  |  |  |  |
| O=C(Nc1cccc(O)c1)c1cccc(NC2=C(Cl)C(=O)N(Cc3ccccc3)C2=O)c1 | 43.5 | 28.4 | 30.1 | 40 | 21.3 | 28.1 | 42.3 | 19.3 | 13.1 | 1.51 | 16.2 | 20.5 | 6.39 | 14.6 | 14.8 | 4.63 |
| Nc1ccc2ccc(NS(=O)(=O)N3CCCCC3)cc2c1 | > 100 | > 100 | > 100 |  | 2.88 | > 100 |  | > 100 | 1.63 | 0.354 | 0.44 |  | 0.228 | 0.301 |  |  |
| C(=C\c1nccc2c1[nH]c1ccccc12)/c1ccccc1 | > 100 | 37.2 | 17.5 | > 100 | 3.21 | 23.9 | 4.66 | 39.7 | 4.69 | 2.25 | 2.43 | 2.91 | 0.714 | 3.48 | 2.06 | 5.82 |
| COc1ccc(/C=C/C(=O)c2cc3c(N)c(C(=O)Nc4ccccc4C)sc3nc2C)cc1 | > 50 | > 50 | > 50 |  | > 50 | > 50 | 0.423 | > 50 | 1.14 | 0.267 | 0.52 |  | 0.497 | 0.275 | 0.14 | 0.387 |
| O=C1c2ccn(CCCCN3CCCCC3)c2C(=O)c2c1c(O)c1ccccc1c2O | > 100 |  | 7.98 | 9.7 | 45.4 | 1.32 | 18 | > 100 | 3.52 | 2.68 | 2.74 | 2.46 | 13.2 |  | 5.54 | > 100 |
| C1=C(c2ccccc2)SC=C(c2ccccc2)S1 | > 100 | 89.3 | > 100 | > 100 | > 100 | > 100 | 48.1 |  |  |  |  |  |  |  |  |  |
| N#C/C(N)=C(\C#N)N=Cc1csc2ccccc12 | 55.7 | > 100 | > 100 | > 100 | > 100 | > 100 |  | > 100 | 20.8 | 95.5 | 71.9 | 46.8 | 51.5 | 28.2 |  | > 100 |
| O=[N+]([O-])/C=C\c1c[nH]c2ccc(OCc3ccccc3)cc12 | 17.1 | 6.88 |  | 4.49 | 23.8 | 14.1 | 6.73 | 24 |  |  |  |  |  |  |  |  |
| COc1cc(NCC2COc3c(ccc(OC)c3OC)C2=O)c([N+](=O)[O-])cc1OC (centres undefined) | > 100 | > 100 | > 100 | > 100 | > 100 | > 100 |  | > 100 |  |  |  |  |  |  |  |  |
| O=C(CNc1ncco1)Nc1ccc(S(=O)(=O)c2ccc(NC(=O)CNc3ncco3)cc2)cc1 | 15.7 | 5.95 | 5.44 | 3.55 |  | 3.65 | 2.86 | 5.65 | 2.4 | 2 | 1.47 | 1.7 |  | 1.75 | 1.42 | 2.49 |
| O=S(=O)(NCCNc1cc(-c2cn(-c3ccccc3)nc2-c2cccc(O)c2)ccn1)c1ccc(Cl)cc1 | 22.6 | 5.4 | 6.42 | 8.61 |  | 5.08 | 10.1 | 5.71 | 3.72 | 1.98 | 2.14 | 2.54 |  | 2.08 | 2.86 | 2.4 |
| Cc1nc2cc(Nc3nc(Nc4ccc(F)cc4)nc(N4CCN(C)CC4)n3)ccc2n1Cc1ccccc1 | 5.49 | 5.29 | 3.48 | 3.69 | 3.6 |  |  | 3.58 | 2.02 | 1.34 | 1.55 | 1.97 | 1.82 |  |  | 1.97 |
| COc1ccc(C(=O)COc2cccc(/C=C3\CSc4ccc(Cl)cc4C3=O)c2)cc1 | 56.3 |  | 4.36 | 31.6 | 28.7 | 21 | 7.1 | 25.1 | 9.35 |  | 1.83 | 13.4 | 11.3 | 6.23 | 1.14 | 11.7 |
| CCCCCCNc1nc(N2CCOCC2)c2[nH]c(NCCCCCC)nc2n1 | 3.74 |  | 3.22 | 3.39 | 3.21 | 3.12 | 2.67 | 3.51 | 1.77 |  | 1.64 | 1.84 | 1.65 | 1.63 | 1.36 | 1.89 |
| CC1(C)CC(=O)C(=[N+]=[N-])C(=O)C1 |  | > 100 | > 100 | > 100 | > 100 | > 100 | > 100 | > 100 |  |  |  |  |  |  |  |  |
| Cc1cc(C)n(C(=O)c2nn(-c3ccc(Cl)cc3)cc2O)n1 | > 100 | > 100 | > 100 | > 100 | 6.73 | 18.6 | > 100 |  | 5.96 | > 100 | 3.53 | 4.69 | 1.81 | 3.46 | 4.58 |  |
